Test results published in publication PMC8689007, “In Silico Prediction and Bioactivity Evaluation of Chemical Ingredients Against Influenza A Virus From Isatis tinctoria L” (Frontiers in Pharmacology, 2021).
In brackets after ≈: the same amount, converted by molar mass. Several values for one entry are separate records, joined by “and”; a condition that tells them apart may be missing. Equal entries are not always repeated. Where two headings read alike, the source gives them in different places.

Legend:
[1] = system: A/HebeiXinhua/SWL1106/2017 (oseltamivir- and amantadine-resistant H1N1); experiment: microbe, parasite or virus in culture; conditions: Influenza A virus, H1N1, MDCK
[2] = system: A/HebeiXinhua/SWL1106/2017 (oseltamivir- and amantadine-resistant H1N1)

Compound: COc1c(O)cc2oc(-c3ccc(O)cc3)cc(=O)c2c1O [Dinatin]
- SI, selection index (TC50/IC50) (A/PR/8/34 (H1N1)): >2.66

Compound: CCOC(=O)C1=C[C@@H](OC(CC)CC)[C@H](NC(C)=O)[C@@H](N)C1 [Oseltamivir]
- IC50 [1]: > 100 µg/mL

Compound: COc1ccc(-c2cc(=O)c3c(O)c(OC)c(OC)cc3o2)cc1O [Eupatorin]
- IC50 [2]: 87.17 ± 5.23 µg/mL and 69.16 ± 2.12 µg/mL and 89.29 ± 5.22 µg/mL
- IC50 [1]: 71.8 ± 6.58 µg/mL (≈ 209 µM)

Compound: NC12CC3CC(CC(C3)C1)C2 [Amantadine]
- IC50 [1]: > 100 µg/mL
